# Laboratory results as given in ChEMBL document CHEMBL1201862, “PubChem BioAssay data set” (2004).
#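 Five concentrations, 48 hours, 96-well plates. Here, GI50 denotes the concentration required for 50% inhibition of growth.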 Activity calls are given as the source filed them. Cut-off read from the data, not from the text of the source: active = GI50 up to about 1.1 µM and inactive = higher.
# Tests used:
# Test in all cases: NCI-60 cell line screen, 48 h
# 786-0 = system: 786-0
# A549 = system: A549
# ACHN = system: ACHN
# BT-549 = system: BT-549
# CAKI-1 = system: CAKI-1
# COLO 205 = system: COLO 205
# DU-145 = system: DU-145
# EKVX = system: EKVX
# HCT-116 = system: HCT-116
# HCT-15 = system: HCT-15
# HL-60 = system: HL-60
# HOP-92 = system: HOP-92
# HT-29 = system: HT-29
# Hs-578T = system: Hs-578T
# IGROV-1 = system: IGROV-1
# K562 = system: K562
# KM12 = system: KM12
# M14 = system: M14
# MCF7 = system: MCF7
# MDA-MB-231 = system: MDA-MB-231
# MDA-MB-435 = system: MDA-MB-435
# MDA-N = system: MDA-N
# MOLT-4 = system: MOLT-4
# Malme-3M = system: Malme-3M
# NCI-H226 = system: NCI-H226
# NCI-H23 = system: NCI-H23
# NCI-H460 = system: NCI-H460
# NCI-H522 = system: NCI-H522
# NCI/ADR-RES = system: NCI/ADR-RES
# OVCAR-4 = system: OVCAR-4
# OVCAR-5 = system: OVCAR-5
# OVCAR-8 = system: OVCAR-8
# PC-3 = system: PC-3
# RPMI-8226 = system: RPMI-8226
# RXF 393 = system: RXF 393
# SF-268 = system: SF-268
# SF-295 = system: SF-295
# SF-539 = system: SF-539
# SK-MEL-28 = system: SK-MEL-28
# SK-MEL-2 = system: SK-MEL-2
# SK-MEL-5 = system: SK-MEL-5
# SK-OV-3 = system: SK-OV-3
# SN12C = system: SN12C
# SNB-19 = system: SNB-19
# SNB-75 = system: SNB-75
# SR = system: SR
# SW-620 = system: SW-620
# T47D = system: T47D
# TK-10 = system: TK-10
# U-251 = system: U-251
# UACC-257 = system: UACC-257
# UACC-62 = system: UACC-62
# UO-31 = system: UO-31
# CCRF-CEM = system: CCRF-CEM
# HCC 2998 = system: HCC 2998
# HOP-62 = system: HOP-62
# LOX IMVI = system: LOX IMVI
# OVCAR-3 = system: OVCAR-3
smiles,measurement,setting,value
Nc1ccc2c(O)cc(O)nc2n1,GI50,786-0,> 100 µM (inactive)
same,GI50,A549,> 100 µM (inactive)
same,GI50,ACHN,> 100 µM (inactive)
same,GI50,BT-549,> 100 µM (inactive)
same,GI50,CAKI-1,> 100 µM (inactive)
same,GI50,COLO 205,> 100 µM (inactive)
same,GI50,DU-145,> 100 µM (inactive)
same,GI50,EKVX,> 100 µM (inactive)
same,GI50,HCT-116,> 100 µM (inactive)
same,GI50,HCT-15,> 100 µM
same,GI50,HL-60,> 100 µM (inactive)
same,GI50,HOP-92,> 100 µM (inactive)
same,GI50,HT-29,> 100 µM (inactive)
same,GI50,Hs-578T,> 100 µM (inactive)
same,GI50,IGROV-1,> 100 µM (inactive)
same,GI50,K562,> 100 µM (inactive)
same,GI50,KM12,> 100 µM (inactive)
same,GI50,M14,> 100 µM (inactive)
same,GI50,MCF7,> 100 µM (inactive)
same,GI50,MDA-MB-231,> 100 µM (inactive)
same,GI50,MDA-MB-435,> 100 µM (inactive)
same,GI50,MDA-N,> 100 µM (inactive)
same,GI50,MOLT-4,> 100 µM (inactive)
same,GI50,Malme-3M,37.8 µM (inactive)
same,GI50,NCI-H226,> 100 µM (inactive)
same,GI50,NCI-H23,> 100 µM (inactive)
same,GI50,NCI-H460,> 100 µM (inactive)
same,GI50,NCI-H522,> 100 µM (inactive)
same,GI50,NCI/ADR-RES,> 100 µM (inactive)
same,GI50,OVCAR-4,> 100 µM (inactive)
same,GI50,OVCAR-5,> 100 µM (inactive)
same,GI50,OVCAR-8,> 100 µM (inactive)
same,GI50,PC-3,> 100 µM (inactive)
same,GI50,RPMI-8226,> 100 µM (inactive)
same,GI50,RXF 393,> 100 µM (inactive)
same,GI50,SF-268,> 100 µM (inactive)
same,GI50,SF-295,> 100 µM (inactive)
same,GI50,SF-539,> 100 µM (inactive)
same,GI50,SK-MEL-28,> 100 µM (inactive)
same,GI50,SK-MEL-2,> 100 µM (inactive)
same,GI50,SK-MEL-5,> 100 µM (inactive)
same,GI50,SK-OV-3,> 100 µM (inactive)
same,GI50,SN12C,> 100 µM (inactive)
same,GI50,SNB-19,> 100 µM (inactive)
same,GI50,SNB-75,> 100 µM (inactive)
same,GI50,SR,> 100 µM (inactive)
same,GI50,SW-620,> 100 µM (inactive)
same,GI50,T47D,> 100 µM (inactive)
same,GI50,TK-10,> 100 µM (inactive)
same,GI50,U-251,> 100 µM (inactive)
same,GI50,UACC-257,> 100 µM (inactive)
same,GI50,UACC-62,> 100 µM (inactive)
same,GI50,UO-31,> 100 µM (inactive)
CCOC1CCN(C(=O)c2ccccc2)O1 (configuration not stated),GI50,786-0,> 10 µM (inactive)
same,GI50,A549,> 10 µM (inactive)
same,GI50,ACHN,> 10 µM (inactive)
same,GI50,BT-549,> 10 µM (inactive)
same,GI50,CAKI-1,> 10 µM (inactive)
same,GI50,CCRF-CEM,> 10 µM (inactive)
same,GI50,COLO 205,> 10 µM (inactive)
same,GI50,DU-145,> 10 µM (inactive)
same,GI50,EKVX,> 10 µM (inactive)
same,GI50,HCC 2998,> 10 µM (inactive)
same,GI50,HCT-116,> 10 µM (inactive)
same,GI50,HCT-15,> 10 µM
same,GI50,HL-60,> 10 µM (inactive)
same,GI50,HOP-62,> 10 µM (inactive)
same,GI50,HT-29,> 10 µM (inactive)
same,GI50,Hs-578T,> 10 µM (inactive)
same,GI50,IGROV-1,> 10 µM (inactive)
same,GI50,K562,> 10 µM (inactive)
same,GI50,LOX IMVI,> 10 µM (inactive)
same,GI50,M14,> 10 µM (inactive)
same,GI50,MCF7,> 10 µM (inactive)
same,GI50,MDA-MB-231,> 10 µM (inactive)
same,GI50,MDA-MB-435,> 10 µM (inactive)
same,GI50,MDA-N,> 10 µM (inactive)
same,GI50,MOLT-4,> 10 µM (inactive)
same,GI50,Malme-3M,> 10 µM (inactive)
same,GI50,NCI-H226,> 10 µM (inactive)
same,GI50,NCI-H23,> 10 µM (inactive)
same,GI50,NCI-H460,> 10 µM (inactive)
same,GI50,NCI-H522,> 10 µM (inactive)
same,GI50,NCI/ADR-RES,> 10 µM (inactive)
same,GI50,OVCAR-3,> 10 µM (inactive)
same,GI50,OVCAR-4,> 10 µM (inactive)
same,GI50,OVCAR-5,> 10 µM (inactive)
same,GI50,OVCAR-8,> 10 µM (inactive)
same,GI50,PC-3,> 10 µM (inactive)
same,GI50,RPMI-8226,> 10 µM (inactive)
same,GI50,RXF 393,> 10 µM (inactive)
same,GI50,SF-268,> 10 µM (inactive)
same,GI50,SF-295,> 10 µM (inactive)
same,GI50,SF-539,> 10 µM (inactive)
same,GI50,SK-MEL-28,> 10 µM (inactive)
same,GI50,SK-MEL-2,> 10 µM (inactive)
same,GI50,SK-MEL-5,> 10 µM (inactive)
same,GI50,SK-OV-3,> 10 µM (inactive)
same,GI50,SN12C,> 10 µM (inactive)
same,GI50,SNB-19,> 10 µM (inactive)
same,GI50,SNB-75,> 10 µM (inactive)
same,GI50,SR,> 10 µM (inactive)
same,GI50,SW-620,> 10 µM (inactive)
same,GI50,T47D,> 10 µM (inactive)
same,GI50,TK-10,> 10 µM (inactive)
same,GI50,UACC-257,> 10 µM (inactive)
same,GI50,UO-31,> 10 µM (inactive)
